Laboratory results: ChEMBL document CHEMBL1129255, “Identification of a retinoic acid receptor alpha subtype specific agonist” (J Med Chem, 1996)

Key:
[1] = target: T1, Retinoic acid receptor beta (Homo sapiens, UniProt P10826); experiment: Binding affinity for baculovirus-expressed Retinoic acid receptor RAR beta
T1 sequence (P10826 whole entry): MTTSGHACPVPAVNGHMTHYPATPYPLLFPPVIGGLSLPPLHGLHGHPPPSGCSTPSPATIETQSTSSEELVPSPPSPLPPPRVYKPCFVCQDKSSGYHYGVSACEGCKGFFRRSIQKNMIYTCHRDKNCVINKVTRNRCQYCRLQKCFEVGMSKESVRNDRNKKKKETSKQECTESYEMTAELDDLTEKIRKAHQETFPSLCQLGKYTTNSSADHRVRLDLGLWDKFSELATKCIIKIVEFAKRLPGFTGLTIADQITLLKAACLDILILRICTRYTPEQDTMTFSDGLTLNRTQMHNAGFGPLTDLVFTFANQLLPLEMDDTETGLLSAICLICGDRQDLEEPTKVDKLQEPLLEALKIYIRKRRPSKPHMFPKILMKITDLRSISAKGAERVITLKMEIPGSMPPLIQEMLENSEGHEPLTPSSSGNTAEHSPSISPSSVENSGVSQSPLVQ

[2] = target: T2, Retinoic acid receptor alpha (Homo sapiens, UniProt P10276); experiment: Binding affinity for baculovirus-expressed Retinoic acid receptor RAR alpha
T2 sequence (P10276 whole entry): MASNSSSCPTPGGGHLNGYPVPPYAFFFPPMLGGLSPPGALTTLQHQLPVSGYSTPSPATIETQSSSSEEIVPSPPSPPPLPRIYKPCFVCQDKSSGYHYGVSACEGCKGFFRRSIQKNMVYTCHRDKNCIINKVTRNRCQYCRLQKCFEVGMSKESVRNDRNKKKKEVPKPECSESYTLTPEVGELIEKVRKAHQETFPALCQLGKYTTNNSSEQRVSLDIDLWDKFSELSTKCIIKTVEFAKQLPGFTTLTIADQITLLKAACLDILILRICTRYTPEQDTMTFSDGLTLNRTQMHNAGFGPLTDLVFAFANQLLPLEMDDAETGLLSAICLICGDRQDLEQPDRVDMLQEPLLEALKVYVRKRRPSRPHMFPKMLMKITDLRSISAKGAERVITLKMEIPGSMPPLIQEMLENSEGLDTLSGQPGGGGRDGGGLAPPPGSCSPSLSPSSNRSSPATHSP

[3] = target: T3, Retinoic acid receptor gamma (Homo sapiens, UniProt P13631); experiment: Binding affinity for baculovirus-expressed Retinoic acid receptor RAR gamma
T3 sequence (P13631 whole entry): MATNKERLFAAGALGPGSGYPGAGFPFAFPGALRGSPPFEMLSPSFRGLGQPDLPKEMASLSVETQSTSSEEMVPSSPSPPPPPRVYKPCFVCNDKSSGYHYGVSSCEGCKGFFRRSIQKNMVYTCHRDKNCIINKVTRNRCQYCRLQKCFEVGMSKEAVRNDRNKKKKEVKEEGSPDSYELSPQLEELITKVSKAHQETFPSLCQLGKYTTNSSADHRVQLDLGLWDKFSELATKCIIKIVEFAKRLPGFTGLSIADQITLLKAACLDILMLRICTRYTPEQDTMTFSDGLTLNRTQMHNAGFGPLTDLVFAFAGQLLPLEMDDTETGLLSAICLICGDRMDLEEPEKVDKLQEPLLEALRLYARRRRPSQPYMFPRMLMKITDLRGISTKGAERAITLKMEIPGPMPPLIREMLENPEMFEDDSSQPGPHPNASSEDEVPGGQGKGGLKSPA

Compound | Kd [1] | Kd [2] | Kd [3]
CC1(C)CCC(C)(C)c2c1cc(C(=O)Nc1ccc(C(=O)O)c(F)c1)c(O)c2Br | 3.04 µM | 0.0044 µM | > 30 µM
CC1(C)CCC(C)(C)c2c1cc(C(=O)Nc1cc(F)c(C(=O)O)c(F)c1)c(O)c2Br | 17.4 µM | 0.0084 µM | > 30 µM
